Assay results taken from patent publication US12281149B2, “Modulators of G-protein coupled receptors” (priority 2021, dated 2025).
Read-outs that look alike come from different tables or passages of the source. *1 amine or outer side, *2 acyl side, *3 side chain or, on linkers, in order; H or OH if unused. Where a SMILES comes first, the peptide text is derived from it. Side-chain parts run from the residue outwards. [ ]: non-standard residue; d: D form. The star is where a group is joined. Isobutyryl(2-(3-CN-5-F-Ph)) = CC(C)(C(=O)*)c1cc(F)cc(C#N)c1; C20 diacid = O=C(O)CCCCCCCCCCCCCCCCCCC(=O)*; γGlu = O=C(O)[C@H](CCC(=O)[*:2])N[*:1]; X60 = O=C(C1(c2cccnc2)CCCC1)*; X24 = O=C(C1(c2cccnc2)CCC1)*; X66 = NC(=O)C1(C(=O)*)CCC1; NH(2-ClPh) = Clc1ccccc1N*; AEEA = NCCOCCOCC(=O)O; Aib = CC(C)(N)C(=O)O; CO = O=C([*:1])[*:2]; X67 = Cc1cccc(N*)c1; GABA = NCCCC(=O)O; βAla = NCCC(=O)O

Columns and labels:
GLP-1 receptor = GLP-1 receptor (Homo sapiens, UniProt P43220); assay: HitHunter cAMP assay, GLP-1 receptor; format: cell-based; details: read-out: Emax GLP-1R
GIP receptor = target: T1, GIP receptor (Homo sapiens, UniProt P48546); assay: HitHunter cAMP assay, GIP receptor; format: cell-based; details: read-out: Emax GIP-1R
T1 sequence (P48546 22-466): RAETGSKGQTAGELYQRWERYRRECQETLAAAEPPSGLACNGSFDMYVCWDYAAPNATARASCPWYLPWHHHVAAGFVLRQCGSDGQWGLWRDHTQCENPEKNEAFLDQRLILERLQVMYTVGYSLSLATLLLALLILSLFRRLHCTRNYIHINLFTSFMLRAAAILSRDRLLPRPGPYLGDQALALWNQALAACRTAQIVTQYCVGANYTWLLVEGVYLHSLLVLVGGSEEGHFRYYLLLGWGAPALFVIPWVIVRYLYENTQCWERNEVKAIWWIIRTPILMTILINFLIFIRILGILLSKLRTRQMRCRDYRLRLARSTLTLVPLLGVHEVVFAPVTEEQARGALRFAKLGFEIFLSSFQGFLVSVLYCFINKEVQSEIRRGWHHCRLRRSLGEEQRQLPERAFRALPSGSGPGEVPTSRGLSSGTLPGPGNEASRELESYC

[1] = CHO cells, cAMP, normalized to maximum signal from GLP-1 (high) and DMSO (low)
[2] = CHO cells, cAMP, normalized to maximum signal from GIP (high) and DMSO (low)

GLP-1 receptor, sequence (P43220 24-463): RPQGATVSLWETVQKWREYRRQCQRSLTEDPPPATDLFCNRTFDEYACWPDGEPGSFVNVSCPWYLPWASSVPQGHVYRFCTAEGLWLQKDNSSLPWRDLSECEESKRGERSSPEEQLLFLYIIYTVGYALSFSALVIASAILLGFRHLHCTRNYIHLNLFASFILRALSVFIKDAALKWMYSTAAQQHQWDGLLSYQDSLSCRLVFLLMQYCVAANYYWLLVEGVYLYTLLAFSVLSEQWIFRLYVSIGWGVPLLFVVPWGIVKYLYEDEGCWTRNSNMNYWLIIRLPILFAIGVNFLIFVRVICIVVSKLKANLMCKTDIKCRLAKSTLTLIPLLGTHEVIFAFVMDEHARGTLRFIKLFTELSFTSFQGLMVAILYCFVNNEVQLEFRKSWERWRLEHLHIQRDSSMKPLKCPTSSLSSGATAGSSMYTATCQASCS

CC[C@H](C)[C@H](NC(=O)[C@H](CC(C)C)NC(=O)[C@H](Cc1c[nH]c2ccccc12)NC(=O)[C@H](CCC(N)=O)NC(=O)[C@@H](NC(=O)[C@H](Cc1ccccc1)NC(=O)[C@H](C)NC(=O)[C@H](CCCCNC(=O)COCCOCCNC(=O)COCCOCCNC(=O)CC[C@H](NC(=O)CCCCCCCCCCCCCCCCCCC(=O)O)C(=O)O)NC(=O)[C@H](CCC(N)=O)NC(=O)[C@H](C)NC(=O)[C@@H](NC(=O)[C@H](CCCCN)NC(=O)[C@H](CC(=O)O)NC(=O)[C@H](CC(C)C)NC(=O)C(C)(C)NC(=O)[C@@H](NC(=O)[C@H](CO)NC(=O)[C@H](Cc1ccc(O)cc1)NC(=O)[C@H](CC(=O)O)NC(=O)[C@H](CO)NC(=O)[C@@H](NC(=O)[C@H](Cc1ccccc1)NC(=O)[C@@H](NC(=O)CNC(=O)[C@H](CCC(=O)O)NC(=O)CCNC(=O)C(C)(C)c1cc(F)cc(C#N)c1)[C@@H](C)O)[C@@H](C)O)[C@@H](C)CC)[C@@H](C)CC)C(C)C)C(=O)N[C@@H](C)C(=O)NCC(=O)NCC(=O)N1CCC[C@H]1C(=O)N[C@@H](CO)C(=O)N[C@@H](CO)C(=O)NCC(=O)N[C@@H](C)C(=O)N1CCC[C@H]1C(=O)N1CCC[C@H]1C(=O)N1CCC[C@H]1C(=O)N[C@@H](CO)C(N)=O [Compound 254] ({Isobutyryl(2-(3-CN-5-F-Ph))-βAla}-EGTFTSDYSI[Aib]LDKIAQK([AEEA-AEEA-γGlu-C20 diacid])AFVQWLIAGGPSSGAPPPS-NH2; C-terminus assumed)
Emax (GLP-1 receptor; [1]): 93%
Emax (GIP receptor; [2]): 102%

CC[C@H](C)[C@H](NC(=O)[C@H](CC(C)C)NC(=O)[C@H](Cc1c[nH]c2ccccc12)NC(=O)[C@H](CCC(N)=O)NC(=O)[C@@H](NC(=O)[C@H](Cc1ccccc1)NC(=O)[C@H](C)NC(=O)[C@H](CCCCNC(=O)COCCOCCNC(=O)COCCOCCNC(=O)CC[C@H](NC(=O)CCCCCCCCCCCCCCCCCCC(=O)O)C(=O)O)NC(=O)[C@H](CCC(N)=O)NC(=O)[C@H](C)NC(=O)[C@@H](NC(=O)[C@H](CCCCN)NC(=O)[C@H](CC(=O)O)NC(=O)[C@H](CC(C)C)NC(=O)C(C)(C)NC(=O)[C@@H](NC(=O)[C@H](CO)NC(=O)[C@H](Cc1ccc(O)cc1)NC(=O)[C@H](CC(=O)O)NC(=O)[C@H](CO)NC(=O)[C@@H](NC(=O)[C@H](Cc1ccccc1)NC(=O)[C@@H](NC(=O)CNC(=O)[C@H](CCC(=O)O)NC(=O)CCNC(=O)C1(c2cccnc2)CCC1)[C@@H](C)O)[C@@H](C)O)[C@@H](C)CC)[C@@H](C)CC)C(C)C)C(=O)N[C@@H](C)C(=O)NCC(=O)NCC(=O)N1CCC[C@H]1C(=O)N[C@@H](CO)C(=O)N[C@@H](CO)C(=O)NCC(=O)N[C@@H](C)C(=O)N1CCC[C@H]1C(=O)N1CCC[C@H]1C(=O)N1CCC[C@H]1C(=O)N[C@@H](CO)C(N)=O [Compound 255] ({X24-βAla}-EGTFTSDYSI[Aib]LDKIAQK([AEEA-AEEA-γGlu-C20 diacid])AFVQWLIAGGPSSGAPPPS-NH2; C-terminus assumed)
Emax (GLP-1 receptor; [1]): 90%
Emax (GIP receptor; [2]): 99%

CC[C@H](C)[C@H](NC(=O)[C@H](CC(C)C)NC(=O)[C@H](Cc1c[nH]c2ccccc12)NC(=O)[C@H](CCC(N)=O)NC(=O)[C@@H](NC(=O)[C@H](Cc1ccccc1)NC(=O)[C@H](C)NC(=O)[C@H](CCCCNC(=O)COCCOCCNC(=O)COCCOCCNC(=O)CC[C@H](NC(=O)CCCCCCCCCCCCCCCCCCC(=O)O)C(=O)O)NC(=O)[C@H](CCC(N)=O)NC(=O)[C@H](C)NC(=O)[C@@H](NC(=O)[C@H](CCCCN)NC(=O)[C@H](CC(=O)O)NC(=O)[C@H](CC(C)C)NC(=O)C(C)(C)NC(=O)[C@@H](NC(=O)[C@H](CO)NC(=O)[C@H](Cc1ccc(O)cc1)NC(=O)[C@H](CC(=O)O)NC(=O)[C@H](CO)NC(=O)[C@@H](NC(=O)[C@H](Cc1ccccc1)NC(=O)[C@@H](NC(=O)CNC(=O)[C@H](CCC(=O)O)NC(=O)CCNC(=O)C1(c2cccnc2)CCCC1)[C@@H](C)O)[C@@H](C)O)[C@@H](C)CC)[C@@H](C)CC)C(C)C)C(=O)N[C@@H](C)C(=O)NCC(=O)NCC(=O)N1CCC[C@H]1C(=O)N[C@@H](CO)C(=O)N[C@@H](CO)C(=O)NCC(=O)N[C@@H](C)C(=O)N1CCC[C@H]1C(=O)N1CCC[C@H]1C(=O)N1CCC[C@H]1C(=O)N[C@@H](CO)C(N)=O [Compound 256] ({X60-βAla}-EGTFTSDYSI[Aib]LDKIAQK([AEEA-AEEA-γGlu-C20 diacid])AFVQWLIAGGPSSGAPPPS-NH2; C-terminus assumed)
Emax (GLP-1 receptor; [1]): 98%
Emax (GIP receptor; [2]): 104%

CC[C@H](C)[C@H](NC(=O)[C@H](CC(C)C)NC(=O)[C@H](Cc1c[nH]c2ccccc12)NC(=O)[C@H](CCC(N)=O)NC(=O)[C@@H](NC(=O)[C@H](Cc1ccccc1)NC(=O)[C@H](C)NC(=O)[C@H](CCCCNC(=O)COCCOCCNC(=O)COCCOCCNC(=O)CC[C@H](NC(=O)CCCCCCCCCCCCCCCCCCC(=O)O)C(=O)O)NC(=O)[C@H](CCC(N)=O)NC(=O)[C@H](C)NC(=O)[C@@H](NC(=O)[C@H](CCCCN)NC(=O)[C@H](CC(=O)O)NC(=O)[C@H](CC(C)C)NC(=O)C(C)(C)NC(=O)[C@@H](NC(=O)[C@H](CO)NC(=O)[C@H](Cc1ccc(O)cc1)NC(=O)[C@H](CC(=O)O)NC(=O)[C@H](CO)NC(=O)[C@@H](NC(=O)[C@H](Cc1ccccc1)NC(=O)[C@@H](NC(=O)CNC(=O)[C@H](CCC(=O)O)NC(=O)CCNC(=O)C1(C(N)=O)CCC1)[C@@H](C)O)[C@@H](C)O)[C@@H](C)CC)[C@@H](C)CC)C(C)C)C(=O)N[C@@H](C)C(=O)NCC(=O)NCC(=O)N1CCC[C@H]1C(=O)N[C@@H](CO)C(=O)N[C@@H](CO)C(=O)NCC(=O)N[C@@H](C)C(=O)N1CCC[C@H]1C(=O)N1CCC[C@H]1C(=O)N1CCC[C@H]1C(=O)N[C@@H](CO)C(N)=O [Compound 257] ({X66-βAla}-EGTFTSDYSI[Aib]LDKIAQK([AEEA-AEEA-γGlu-C20 diacid])AFVQWLIAGGPSSGAPPPS-NH2; C-terminus assumed)
Emax (GLP-1 receptor; CHO): 89%
Emax (GIP receptor; CHO): 92%

CC[C@H](C)[C@H](NC(=O)[C@H](CC(C)C)NC(=O)[C@H](Cc1c[nH]c2ccccc12)NC(=O)[C@H](CCC(N)=O)NC(=O)[C@@H](NC(=O)[C@H](Cc1ccccc1)NC(=O)[C@H](C)NC(=O)[C@H](CCCCNC(=O)COCCOCCNC(=O)COCCOCCNC(=O)CC[C@H](NC(=O)CCCCCCCCCCCCCCCCCCC(=O)O)C(=O)O)NC(=O)[C@H](CCC(N)=O)NC(=O)[C@H](C)NC(=O)[C@@H](NC(=O)[C@H](CCCCN)NC(=O)[C@H](CC(=O)O)NC(=O)[C@H](CC(C)C)NC(=O)C(C)(C)NC(=O)[C@@H](NC(=O)[C@H](CO)NC(=O)[C@H](Cc1ccc(O)cc1)NC(=O)[C@H](CC(=O)O)NC(=O)[C@H](CO)NC(=O)[C@@H](NC(=O)[C@H](Cc1ccccc1)NC(=O)[C@@H](NC(=O)CNC(=O)[C@H](CCC(=O)O)NC(=O)CCCNC(=O)CNC(=O)Nc1cccc(C)c1)[C@@H](C)O)[C@@H](C)O)[C@@H](C)CC)[C@@H](C)CC)C(C)C)C(=O)N[C@@H](C)C(=O)NCC(=O)NCC(=O)N1CCC[C@H]1C(=O)N[C@@H](CO)C(=O)N[C@@H](CO)C(=O)NCC(=O)N[C@@H](C)C(=O)N1CCC[C@H]1C(=O)N1CCC[C@H]1C(=O)N1CCC[C@H]1C(=O)N[C@@H](CO)C(N)=O [Compound 258] ({X67-CO}-G[GABA]EGTFTSDYSI[Aib]LDKIAQK([AEEA-AEEA-γGlu-C20 diacid])AFVQWLIAGGPSSGAPPPS-NH2; C-terminus assumed)
Emax (GLP-1 receptor; CHO): 100%
Emax (GIP receptor; CHO): 101%

CC[C@H](C)[C@H](NC(=O)[C@H](CC(C)C)NC(=O)[C@H](Cc1c[nH]c2ccccc12)NC(=O)[C@H](CCC(N)=O)NC(=O)[C@@H](NC(=O)[C@H](Cc1ccccc1)NC(=O)[C@H](C)NC(=O)[C@H](CCCCNC(=O)COCCOCCNC(=O)COCCOCCNC(=O)CC[C@H](NC(=O)CCCCCCCCCCCCCCCCCCC(=O)O)C(=O)O)NC(=O)[C@H](CCC(N)=O)NC(=O)[C@H](C)NC(=O)[C@@H](NC(=O)[C@H](CCCCN)NC(=O)[C@H](CC(=O)O)NC(=O)[C@H](CC(C)C)NC(=O)C(C)(C)NC(=O)[C@@H](NC(=O)[C@H](CO)NC(=O)[C@H](Cc1ccc(O)cc1)NC(=O)[C@H](CC(=O)O)NC(=O)[C@H](CO)NC(=O)[C@@H](NC(=O)[C@H](Cc1ccccc1)NC(=O)[C@@H](NC(=O)CNC(=O)[C@H](CCC(=O)O)NC(=O)CCCNC(=O)CNC(=O)Nc1ccccc1Cl)[C@@H](C)O)[C@@H](C)O)[C@@H](C)CC)[C@@H](C)CC)C(C)C)C(=O)N[C@@H](C)C(=O)NCC(=O)NCC(=O)N1CCC[C@H]1C(=O)N[C@@H](CO)C(=O)N[C@@H](CO)C(=O)NCC(=O)N[C@@H](C)C(=O)N1CCC[C@H]1C(=O)N1CCC[C@H]1C(=O)N1CCC[C@H]1C(=O)N[C@@H](CO)C(N)=O [Compound 259] ({NH(2-ClPh)-CO}-G[GABA]EGTFTSDYSI[Aib]LDKIAQK([AEEA-AEEA-γGlu-C20 diacid])AFVQWLIAGGPSSGAPPPS-NH2; C-terminus assumed)
Emax (GLP-1 receptor; CHO): 103%
Emax (GIP receptor; CHO): 103%
